From patent EP4273147A1, “SUBSTITUTED SPIROLACTAMS, SALTS THEREOF AND THEIR USE AS HERBICIDALLY ACTIVE SUBSTANCES” (Bayer Aktiengesellschaft, priority 2022, dated 2023) come the findings set out here.

Series [1] concerns ECHCG. Kind of series: Herbicidal pre-emergence action (Table A2). The class given is in vivo, Echinochloa crus-galli. The note with it: visual grading after ca. 3 weeks. Put shortly: (§1)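 Seeds covered with soil after sowing in sandy loam; every pot carried one monocotyledonous and one dicotyledonous weed species as a double sowing.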
The subject of a further series is LOLRI. Description: Herbicidal pre-emergence action (Table A3). The note with it: visual grading after ca. 3 weeks. The class given is in vivo, Lolium rigidum. Put shortly:
as §1

The test system of a further series is MATIN. Kind of series: Herbicidal pre-emergence action (Table A4). Format: in vivo, Matricaria inodora. The note with it: application rate 1280 g/ha; visual grading after ca. 3 weeks. Put shortly:
as §1

Series [2] relates to SETVI. Kind of series: Herbicidal pre-emergence action (Table A5). Conditions: application rate 320 g/ha; visual grading after ca. 3 weeks. Format: in vivo, Setaria viridis. Put shortly:
as §1

In series [3] the test system is POAAN. Description: Herbicidal pre-emergence action (Table A7). The class given is in vivo, Poa annua. The note with it: visual grading after ca. 3 weeks. In a few lines:
as §1

For series [4], the system named is ECHCG. Kind of series: Herbicidal post-emergence action (Table B3). Format: in vivo, Echinochloa crus-galli. Conditions: application rate 1280 g/ha; rated visually after about 3 weeks. Put shortly:
(§2)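 Greenhouse pot assay, sandy loam soil, one weed species per pot. Application at one-leaf stage. Readout ~3 wk post-treatment: visual % activity, 100 = dead, 0 = as untreated.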

Series [5] relates to POAAN. Description: Herbicidal post-emergence action (Table B7). Format: in vivo, Poa annua. The note with it: application rate 1280 g/ha. In a few lines: as §2
The next series has as its system ABUTH. Kind of series: Herbicidal pre-emergence action, section C (Table C1). Conditions: application rate 320 g/ha; visual grading after ca. 3 weeks. Format: in vivo, Abutilon theophrasti.
The subject of series [6] is ECHCG. Description: Herbicidal pre-emergence action, section C (Table C6). Format: in vivo, Echinochloa crus-galli. Conditions: application rate 320 g/ha; visual grading after ca. 3 weeks.
The subject of series [7] is SETVI. Kind of series: Herbicidal pre-emergence action, section C (Table C10). The note with it: visual grading after ca. 3 weeks. The class given is in vivo, Setaria viridis.
Excerpt: Seeds of mono- and dicotyledonous weed plants and crop plants were sown, in plastic or organic planting pots, in sandy loam and covered with soil. The compounds according to the invention, formulated in the form of wettable powders (WP) or as emulsifiable concentrates (EC), were applied to the surface of the covering soil as aqueous suspension or emulsion, with the addition of 0.5% of an additive, at an application rate of 600 1 of water/ha (converted). Following treatment, the pots were placed in a greenhouse and kept under optimum growth conditions for the test plants.
Series [8] concerns ZEAMX. Kind of series: Pre-emergence effects on crop plants (Table D1). The class given is in vivo, Zea mays. Conditions: crop plant, visual grading after ca. 3 weeks.
The subject of series [9] is TRZAS. Description: Pre-emergence effects on crop plants (Table D2). The class given is in vivo, Triticum aestivum. The note with it: crop plant, visual grading after ca. 3 weeks.
Excerpt: Seeds of mono- and dicotyledonous weed plants and crop plants were sown, in plastic or organic planting pots, in sandy loam and covered with soil. The compounds according to the invention, formulated in the form of wettable powders (WP) or as emulsifiable concentrates (EC), were applied to the surface of the covering soil as aqueous suspension or emulsion, with the addition of 0.5% of an additive, at an application rate of 600 1 of water/ha (converted).
Following treatment, the pots were placed in a greenhouse and kept under optimum growth conditions for the test plants.
The test system of series [10] is GLXMA. Kind of series: Pre-emergence effects on crop plants (Table D4). Format: in vivo, Glycine max. The note with it: crop plant, visual grading after ca. 3 weeks.
Series [11] concerns ECHCG. Description: Herbicidal post-emergence action, section E (Table E5). Format: in vivo, Echinochloa crus-galli. The note with it: application rate 320 g/ha; assessed visually after ca. 3 weeks. The source says: (§3) 2 to 3 weeks after sowing, the test plants were sprayed in the single-leaf stage.
In series [12] the test system is ZEAMX. Description: Post-emergence effects on crop plants (Table F1). Format: in vivo, Zea mays. Conditions: application rate 320 g/ha, crop plant ZEAMX.
Excerpt: as §3

Series [13] deals with TRZAS. Kind of series: Post-emergence effects on crop plants (Table F2). The note with it: application rate 320 g/ha, crop plant TRZAS. Format: in vivo, Triticum aestivum.
Excerpt: as §3

The test system of series [14] is ORYZA. Description: Post-emergence effects on crop plants (Table F3). Format: in vivo, Oryza sativa. Conditions: application rate 320 g/ha, crop plant ORYZA.
Excerpt: as §3

Series [15] concerns ORYZA. Description: Pre-emergence effects on crop plants (Table D3). The note with it: crop plant, visual grading after ca. 3 weeks.
The next series relates to STEME. Description: Herbicidal pre-emergence action (Table A6). The note with it: application rate 320 g/ha; visual grading after ca. 3 weeks. Format: in vivo, Stellaria media. In a few lines:
as §1

The test system of another series is ALOMY. Description: Herbicidal pre-emergence action, section C (Table C2). The class given is in vivo, Alopecurus myosuroides. Conditions: application rate 320 g/ha; visual grading after ca. 3 weeks.
Series [16] relates to VERPE. Kind of series: Herbicidal pre-emergence action, section C (Table C11). Format: in vivo, Veronica persica. Conditions: application rate 80 g/ha; visual grading after ca. 3 weeks.
Series [17] relates to VIOTR. Kind of series: Herbicidal pre-emergence action, section C (Table C12). The note with it: application rate 320 g/ha; visual grading after ca. 3 weeks. Format: in vivo, Viola tricolor.
Series [18] has as its system BRSNW. Kind of series: Pre-emergence effects on crop plants (Table D5). The note with it: crop plant, visual grading after ca. 3 weeks. The class given is in vivo, Brassica napus.
The subject of series [19] is VERPE. Kind of series: Herbicidal post-emergence action, section E (Table E9). Format: in vivo, Veronica persica. The note with it: application rate 320 g/ha; assessed visually after ca. 3 weeks.
Excerpt: as §3

Series [20] has as its system BRSNW. Description: Post-emergence effects on crop plants (Table F5). The note with it: crop plant BRSNW. The class given is in vivo, Brassica napus.
Excerpt: as §3

The test system of another series is DIGSA. Kind of series: Herbicidal pre-emergence action, section C (Table C5). Format: in vivo, Digitaria sanguinalis. The note with it: application rate 320 g/ha; visual grading after ca. 3 weeks.
In series [21] the test system is VIOTR. Kind of series: Herbicidal post-emergence action, section E (Table E10). The class given is in vivo, Viola tricolor. The note with it: application rate 320 g/ha; assessed visually after ca. 3 weeks.
Excerpt: as §3

Series [22] relates to GLXMA. Description: Post-emergence effects on crop plants (Table F4). The class given is in vivo, Glycine max. The note with it: application rate 320 g/ha, crop plant GLXMA.
Excerpt: as §3

Consider `O=C1N(Cc2ccccc2Br)CCCC12CCCN(Cc1c(F)cccc1F)C2=O` (racemic) [I-048], for which the “pre-emergence activity against ECHCG” value with ECHCG [1] (application rate 320 g/ha) and in the series with ECHCG [6] was 100% each time. Further, the “pre-emergence activity against LOLRI” value in the series with LOLRI (application rate 320 g/ha) is listed as 100%. Also, the “pre-emergence activity against MATIN” value in the series with MATIN is on record as 90%. Further, the “pre-emergence activity against SETVI” value in the series with SETVI [2] and in the series with SETVI [7] (application rate 80 g/ha) was 100% each time. The “pre-emergence activity against POAAN” value in the series with POAAN [3] (application rate 1280 g/ha) was determined as 90%. In addition, the “post-emergence activity against ECHCG” value is reported as 90% in the series with ECHCG [4] and 80% with ECHCG [11]. The “post-emergence activity against POAAN” value with POAAN [5] came out at 90%. Moreover, in the series on ABUTH, the “pre-emergence activity against ABUTH” value was 90%. The “pre-emergence activity against ZEAMX” value in the series with ZEAMX [8] (application rate 80 g/ha) came out at 0%. In addition, in the series on TRZAS [9] (application rate 80 g/ha), the “pre-emergence activity against TRZAS” value came out at 0%. Moreover, the “pre-emergence activity against GLXMA” value in the series with GLXMA [10] (application rate 320 g/ha) was determined as 0%. The “post-emergence activity against ZEAMX” value in the series with ZEAMX [12] is reported as 20%. Moreover, the “post-emergence activity against TRZAS” value with TRZAS [13] worked out at 20%. Also, the “post-emergence activity against ORYZA” value with ORYZA [14] amounted to 0%. Also, the “pre-emergence activity against ORYZA” value in the series on ORYZA [15] (application rate 80 g/ha) came to 0%.
With `O=C1N(Cc2ccc(Cl)s2)CCCC12CCCN(Cc1ccc(Cl)s1)C2=O` (racemic) [I-022], in the series on LOLRI (application rate 1280 g/ha), the “pre-emergence activity against LOLRI” value worked out at 90%. Further, in the series with MATIN, the “pre-emergence activity against MATIN” value is 90%. In addition, the “pre-emergence activity against SETVI” value with SETVI [2] and in the series on SETVI [7] (application rate 320 g/ha) was 100% throughout. Besides, the “pre-emergence activity against STEME” value in the series with STEME is listed as 100%. Moreover, the “pre-emergence activity against POAAN” value in the series with POAAN [3] (application rate 320 g/ha) is 100%. Also, the “post-emergence activity against POAAN” value in the series with POAAN [5] was determined as 90%. Moreover, in the series with ALOMY, the “pre-emergence activity against ALOMY” value is on record as 90%. In addition, the “pre-emergence activity against ECHCG” value with ECHCG [6] was determined as 100%. The “pre-emergence activity against VERPE” value in the series with VERPE [16] was found to be 100%. Moreover, in the series with VIOTR [17], the “pre-emergence activity against VIOTR” value was found to be 80%. In addition, the “pre-emergence activity against ZEAMX” value in the series on ZEAMX [8] (application rate 320 g/ha) came out at 0%. The “pre-emergence activity against TRZAS” value in the series with TRZAS [9] (application rate 320 g/ha) turned out to be 10%. Also, the “pre-emergence activity against GLXMA” value with GLXMA [10] (application rate 80 g/ha) is given as 20%. Besides, the “pre-emergence activity against BRSNW” value with BRSNW [18] (application rate 80 g/ha) stood at 0%. In the series with ECHCG [11], the “post-emergence activity against ECHCG” value is listed as 90%. In addition, the “post-emergence activity against VERPE” value with VERPE [19] worked out at 80%. For the same molecule, in the series with ZEAMX [12], the “post-emergence activity against ZEAMX” value was 0%. The “post-emergence activity against TRZAS” value with TRZAS [13] is reported as 10%. Further, the “post-emergence activity against ORYZA” value in the series with ORYZA [14] was 10%. For the same molecule, the “post-emergence activity against BRSNW” value with BRSNW [20] (application rate 80 g/ha) is given as 20%. The “pre-emergence activity against ORYZA” value in the series on ORYZA [15] (application rate 80 g/ha) came to 10%.
With `O=C1N(Cc2c(F)cccc2Cl)CCCC12CCCN(Cc1c(F)cccc1Cl)C2=O` (racemic) [I-063], the “pre-emergence activity against ECHCG” value in the series on ECHCG [1] (application rate 1280 g/ha) is 100%. Further, the “pre-emergence activity against SETVI” value with SETVI [2] and in the series on SETVI [7] (application rate 320 g/ha) was 100% throughout. Also, the “pre-emergence activity against STEME” value with STEME was 100%. The “pre-emergence activity against POAAN” value with POAAN [3] (application rate 320 g/ha) is reported as 100%. Also, the “pre-emergence activity against DIGSA” value with DIGSA was determined as 100%. For the same molecule, in the series with ZEAMX [8] (application rate 320 g/ha), the “pre-emergence activity against ZEAMX” value stood at 0%. For the same molecule, the “pre-emergence activity against TRZAS” value in the series with TRZAS [9] (application rate 320 g/ha) was 0%. For the same molecule, the “pre-emergence activity against GLXMA” value in the series on GLXMA [10] (application rate 320 g/ha) came to 0%. Further, the “pre-emergence activity against BRSNW” value in the series with BRSNW [18] (application rate 320 g/ha) was 10%. The “post-emergence activity against VIOTR” value in the series with VIOTR [21] is recorded as 80%. Further, in the series on ZEAMX [12], the “post-emergence activity against ZEAMX” value is listed as 10%. Further, the “post-emergence activity against TRZAS” value with TRZAS [13] was determined as 0%. Moreover, in the series with ORYZA [14], the “post-emergence activity against ORYZA” value was 0%. In the series with GLXMA [22], the “post-emergence activity against GLXMA” value amounted to 10%. Moreover, the “post-emergence activity against BRSNW” value in the series on BRSNW [20] (application rate 320 g/ha) was determined as 10%. In addition, the “pre-emergence activity against ORYZA” value in the series with ORYZA [15] (application rate 320 g/ha) was 0%.
